Key:
[1] = test system: RB-null melanoma cell line A2058; experiment: Clonogenic assay after IR, A2058; assay type: cell-based, human; conditions: 100 nM, IR 0-9 Gy
Method: Data plotted is the area/cell ratio of PD0332991 treated cells to dimethyl sulfoxide (DMSO) treated cells. Error bars show standard error of the mean.
Clonogenic Assay: The clonogenic assay was performed as previously described (see Franken et al., Nature protocols, 1, 2315-1319 (2006)) with cells plated in a six-well plate at least 6 hours prior to treatment with CDK inhibitor for 24 hours, […] Cells were grown for 16 days, washed, fixed, and stained with crystal violet. Plates were then imaged using an Odyssey infrared scanner (Li-Cor Biosciences, Lincoln, Nebr., United States of America) and quantified using the accompanying software.

[2] = test system: bone marrow mononuclear cells (BM-MNCs); experiment: Cobblestone area-forming cell (CAFC) assay; assay type: cell-based, mice; conditions: daily oral gavage for 2 days prior to bone marrow harvest
Method: CAFCs are per 1×10^5 bone marrow mononuclear cells (BM-MNCs). Error bars are +/− the standard error of the mean of pooled samples measured in duplicate.
Cobblestone Area-forming Cell (CAFC) Assay: The CAFC assay was performed as described previously. See Meng et al., Cancer Res., 63, 5414-5419 (2003). Briefly, bone marrow was harvested from femurs and tibias of mice and centrifuged to purify BM-MNCs. The frequencies of CAFC were determined at weekly intervals (on day 7, 14, and 35). Wells were scored positive if at least one phase-dark hematopoietic clone (containing 5 or more cells) was seen. The frequency of CAFC was then calculated by using Poisson statistics as described.

[3] = test system: mice exposed to total body irradiation
Source text: FIG. 16 is set of bar graphs showing the hematocrit or cell counts of different lineages of blood cells from mice 143-242 days following exposure to a lethal dose (7.5 gray (Gy)) or sub-lethal dose (6.5 Gy) of total body irradiation (TBI). Data for mice treated with 6-acetyl-8-cyclopentyl-5-methyl-2-(5-piperazin-1-yl-pyridin-2-ylamino)-8H-pyrido-[2,3-d]pyrimidin-7-one (PD 0332991) prior to 6.5 Gy TBI is shown in the solid bars and data for mice treated with PD 0332991 prior to 7.5 Gy TBI is shown in the stippled bars. […] Myeloid cell count is the sum of granulocytes and monocytes.

In the case of `CC(=O)c1c(C)c2cnc(Nc3ccc(N4CCNCC4)cn3)nc2n(C2CCCC2)c1=O` [PD0332991, 6-acetyl-8-cyclopentyl-5-methyl-2-(5-piperazin-1-yl-pyridin-2-ylamino)-8H-pyrido-[2,3-d]-pyrimidin-7-one], the “clonogenic cell survival after IR (area/cell ratio relative to DMSO)” value [1] is reported as “not in CDK4/6-independent cells”, the “in vivo HSPC number (CAFC)” value [2] is reported as “did not decrease in vivo HSPC number” and the deaths ([3]; 6.5 Gy TBI, followed 210-274 days post-TBI) is reported as “no deaths”. The “deaths among 29 mice surviving acute toxicity” value ([3]; 7.5 Gy TBI, remaining mice disease free 101-251 days post-TBI) was “one death of unknown cause at day 99”, the “blood counts on long-term surviving animals vs unirradiated” value ([3]; long-term after TBI) was “comparable” and the “myeloproliferative disorder or myelodysplasia” value ([3]; mouse, in vivo) was “No evidence”.

— US20110224221A1, “HEMATOPOIETIC PROTECTION AGAINST IONIZING RADIATION USING SELECTIVE CYCLIN-DEPENDENT KINASE 4/6 INHIBITORS” (priority 2008, published 2011)
